According to patent publication US20240299542A1, “NATURAL KILLER CELLS ENGINEERED TO REDUCE OR ELIMINATE CBL-B AND USES THEREOF” (City of Hope, priority 2021, published 2024):

System: Mertk
Assay: Mertk phosphorylation by immunoblot in siRNA-transduced NK cells
Assay type: cell-based, human
Settings: vs Scr siRNA
Experimental: FIGS. 5A-5D depict the results of a study showing that Cbl-b interacts with and regulates phosphorylation of Mertk in primary human NK cells. (FIG. 5A) Representative intracellular flow cytometric analysis of the TAM family receptors expression in primary human NK cells. Summarized data are shown from 6 donors. IgG1 is the isotype for Tyro3 and Axl, while IgG2 for Mertk. (FIG. 5B) The level of Mertk phosphorylation and Cbl-b in Cbl-b siRNA- or Scr siRNA-transduced primary human NK was measured by immunoblot analysis. Data presented are representative of five independent experiments. […] Data presented are representative of 4 donors performed in a similar fashion and are summarized in the panel below the representative flow dot plots. […]
FIGS. 10A-10B depict immunoblotting analysis of the phosphorylation level of Mertk (p-Mertk). (FIG. 10A) The level of Mertk phosphorylation and Cbl-b in Cbl-b siRNA- or Scr siRNA-transduced primary human NK cells was measured by immunoblot analysis. […] (FIG. 10B) The level of total Mertk expression in Cbl-b siRNA- or Scr siRNA-transduced primary human NK was measured by immunoblot analysis.
Immunoblotting. […] Densitometric analysis was performed to quantify intensity of gel bands with Image J (National Institutes of Health). […]

Substance: Cbl-b siRNA: Cbl-b-specific Accell siRNA (Dharmacon), SEQ ID NO:1, CCUUCAUGUUCAGAUGGUU (Accell modified siRNA, pattern not given here)
- phosphorylation level of Mertk (p-Mertk): significantly increased
